The results in this text go back to patent US7612084B2, “Amine derivatives for the treatment of asthma and COPD” (Pfizer Inc, priority 2006, dated 2009).

Assay [1] addresses human adrenergic B2 receptor (Homo sapiens, UniProt P07550). In words: Whole cell luciferase reporter assay in CHO cells expressing the hB2 receptor (agonist potency). The class given is cell-based. The note with it: 4 h incubation, read-out: EC50 - beta2. As for the experimental part:
Functional Assessment of Agonist Potency and Efficacy Using a Whole Cell Luciferase Reporter Assay in CHO Cells Expressing the hB2 Receptor.
CHO (Chinese Hamster Ovary) cells recombinantly expressing the human adrenergic B2 receptor and transfected with a luciferase enzyme reporter gene were maintained in growth media composed of F12:DMEM (Sigma D6421) containing 10% Foetal Bovine Serum (FBS: Sigma F03921) 10 μg/ml puromycin (Sigma N277698), 0.5 mg/ml Geneticin G418 (Sigma G7034) and 2 mM L-glutamine (Sigma G7513). The cells were kept in sterile conditions at 37° C., in an atmosphere containing 5% CO2.
hB2 Luciferase Assay Protocol
Cells were harvested for assay when they reached 80-90% confluency using enzyme free cell Dissociation Solution (Life technologies 13151-014) incubated with the cells for 5 min at 37° C. in an atmosphere containing 5% CO2. Detached cells were collected in warmed growth media (composition described above), and re-suspended in assay media (F12:DMEM (Sigma D6421) containing 1% Foetal Bovine Serum (FBS: Sigma F03921), 10 μg/ml puromycin (Sigma N277698), 0.5 mg/ml Geneticin G418 (Sigma G7034) and 2 mM L-glutamine (Sigma G7513))to give a viable cell concentration of 1×10^6 cells/ml. 10 ul of this suspension was added to each well of a tissue culture treated low volume 384 well plate (Greiner788073) and the plate incubated in an atmosphere containing 5% CO2 at 37° C. for 2 h. Concentration ranges of test compounds were prepared in phosphate Buffered Saline containing 0.05% pluronic-F127 (Sigma P2443) and 2.5% DMSO. 2 μl of each test concentration were added to the appropriate 384 plate well and returned to the incubator for a further 4 h. At the end of the incubation period 4 μl of Steady-Glo reagent (Steady-Glo Luciferase assay system (Promega E2520) was added to each well and the plate read immediately in a Leadseeker Plate reader (Amersham Bioscience) using a 660 nm filter. Concentration effect curves were plotted and EC50 values generated using a 4-parameter sigmoid fit using an in-house data analysis programme. Isoprenaline was run in every assay as a reference standard.
On the technique in general: In a reporter assay the amount or activity of a reporter protein is the signal.

The target in assay [2] is human muscarinic M3 receptor (Homo sapiens, UniProt P20309). In words: Whole cell β-lactamase reporter assay in CHO cells expressing the hM3 receptor (antagonist activity). The class given is cell-based. As to conditions: 80 nM carbamyl choline, IC50 converted to Ki by Cheng-Prusoff. As to the method:
Functional Assessment of Antagonist Activity Using a Whole Cell β-Lactamase Reporter Assay in CHO Cells Expressing the hM3 Receptor.
CHO (Chinese Hamster Ovary) cells recombinantly expressing the human muscarinic M3 receptor were transfected with the NFAT_β-Lac_Zeo plasmid. Cells were grown in DMEM with Glutamax-1, supplemented with 25 mM HEPES(Life Technologies 32430-027), containing 10% FCS (Foetal Calf Serum; Sigma F-7524), […] Sodium pyruvate (Sigma S-8636), NEAA (non-Essential Amino Acids; Invitrogen 11140-035) and […] Zeocin (Invitrogen R250-01).
Cells were harvested for assay when they reached 80-90% confluency using enzyme free cell Dissociation Solution (Life technologies 13151-014) incubated with the cells for 5 min at 37° C. in an atmosphere containing 5% CO2. Detached cells were collected in warmed growth media and centrifuged at 200 rpm for 10 min, washed in PBS (Phosphate Buffered Saline; Life Technologies 14190-094) and centrifuged again as just described. The cells were re-suspended at 2×10^5 cells/ml in growth medium (composition as described above). 20 μl of this cell suspension was added to each well of a 384 well black clear bottomed plate (Greiner Bio One 781091-PFI). The assay buffer used was PBS supplemented with 0.05% Pluronic F-127 (Sigma 9003-11-6) and 2.5% DMSO. Muscarinic M3 receptor signalling was stimulated using 80 nM carbamyl choline (Aldrich N240-9) incubated with the cells for 4 h at 37° C./5% CO2 and monitored at the end of the incubation period using a Tecan SpectraFluor+plate reader (λ−excitation 405 nm, emission 450 nm and 503 nm). Compounds under test were added to the assay at the beginning of the 4 h incubation period and compound activity measured as the concentration dependent inhibition of the carbamyl choline induced signal. Inhibition curves were plotted and IC50 values generated using a 4-parameter sigmoid fit and converted to Ki values using the Cheng-Prusoff correction and the KD value for carbamyl choline in the assay.

pEC50, pKi: −log10 of the molar value. Structures can show the parent of a compound that is named as a salt.

human adrenergic B2 receptor, sequence (P07550 whole entry): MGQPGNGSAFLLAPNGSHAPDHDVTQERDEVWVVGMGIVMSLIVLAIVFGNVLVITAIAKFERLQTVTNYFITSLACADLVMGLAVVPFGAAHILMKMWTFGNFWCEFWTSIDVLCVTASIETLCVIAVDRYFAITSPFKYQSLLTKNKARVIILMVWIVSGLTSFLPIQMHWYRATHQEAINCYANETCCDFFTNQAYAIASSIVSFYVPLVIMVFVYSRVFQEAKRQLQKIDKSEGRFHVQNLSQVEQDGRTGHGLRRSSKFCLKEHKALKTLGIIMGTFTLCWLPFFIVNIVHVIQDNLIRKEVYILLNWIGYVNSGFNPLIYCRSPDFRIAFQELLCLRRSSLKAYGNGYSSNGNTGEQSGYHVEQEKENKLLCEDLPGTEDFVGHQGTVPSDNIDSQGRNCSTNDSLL
human muscarinic M3 receptor, sequence (P20309 whole entry): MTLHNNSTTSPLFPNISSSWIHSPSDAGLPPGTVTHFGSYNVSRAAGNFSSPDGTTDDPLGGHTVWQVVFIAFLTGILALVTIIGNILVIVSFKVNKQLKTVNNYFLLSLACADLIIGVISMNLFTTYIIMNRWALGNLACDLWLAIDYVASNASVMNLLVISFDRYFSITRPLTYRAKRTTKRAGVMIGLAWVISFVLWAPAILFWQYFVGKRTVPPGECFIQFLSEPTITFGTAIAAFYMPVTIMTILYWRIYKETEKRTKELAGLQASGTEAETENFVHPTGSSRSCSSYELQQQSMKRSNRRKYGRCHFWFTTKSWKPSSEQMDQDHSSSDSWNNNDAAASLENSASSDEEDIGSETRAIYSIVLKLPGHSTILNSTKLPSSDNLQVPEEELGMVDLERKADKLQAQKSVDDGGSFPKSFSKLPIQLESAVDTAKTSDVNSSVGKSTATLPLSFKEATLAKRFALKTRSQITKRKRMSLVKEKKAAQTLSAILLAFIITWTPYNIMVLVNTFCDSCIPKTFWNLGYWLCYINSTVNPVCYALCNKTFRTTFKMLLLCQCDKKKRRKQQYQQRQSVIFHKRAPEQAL

For `CC(C)N(CC[C@H](c1ccccc1)c1cc(CCCCCOc2ccc(CCNC[C@H](O)c3ccc(O)c(NS(C)(=O)=O)c3)cc2)ccc1O)C(C)C` [Example 17, N-(5-{(1R)-2-[(2-{4-[(5-{3-[(1R)-3-(diisopropylamino)-1-phenylpropyl]-4-hydroxyphenyl}pentyl)oxy]phenyl}ethyl)amino]-1-hydroxyethyl}-2-hydroxyphenyl)methanesulfonamide], in assay [1], the pEC50 is 9.24. Also, the pKi in assay [2] is 8.52.
`CC(C)N(CC[C@H](c1ccccc1)c1cc(CCOc2ccc(CCNC[C@H](O)c3ccc(O)c(NS(C)(=O)=O)c3)cc2)ccc1O)C(C)C` [Example 19, N-{5-[(1R)-2-({2-[4-(2-{3-[(1R)-3-(diisopropylamino)-1-phenylpropyl]-4-hydroxyphenyl}ethoxy)phenyl]ethyl}amino)-1-hydroxyethyl]-2-hydroxyphenyl}methanesulfonamide succinate salt]: the pEC50 in assay [1] is 9.70. Also, the pKi in assay [2] is 9.52.
Take `CC(C)N(CC[C@H](c1ccccc1)c1cc(CCOc2ccc(CC(C)(C)NC[C@H](O)c3ccc(O)c4[nH]c(=O)ccc34)cc2)ccc1O)C(C)C` [Example 20, 5-[(1R)-2-({2-[4-(2-{3-[(1R)-3-(diisopropylamino)-1-phenylpropyl]-4-hydroxyphenyl}ethoxy)phenyl]-11-dimethylethyl}amino)-1-hydroxyethyl]-8-hydroxyquinolin-2(1H)-one]: the pEC50 in assay [1] is 10.55. This compound also showed a pKi in assay [2] of 9.41.

As a reminder, the pEC50 is the EC50 on a negative log10 scale, so that one unit is a factor of ten. Usually pKi stands for the negative decadic logarithm of the Ki, by convention in mol/L. Higher therefore signals a small Ki.
